{
  "source": "patent US20140303105A1",
  "about": "“Primycin and components thereof for use in the treatment or prevention of infections caused by specific pathogens” (PANNONPHARMA GYÓGYSZERGYÁRTÓ ZRT., priority 2011, published 2014)",
  "key": {"[1]": {"system": "Coagulase-negative Staphylococus sp., methicillin susceptible", "assay": "Standard microdilution susceptibility test, clinical isolates", "assay_type": "cell-based", "conditions": "10 clinical isolates"}, "[2]": {"system": "Enterococcus sp., vancomycin susceptible", "assay": "Standard microdilution susceptibility test, clinical isolates", "assay_type": "cell-based", "conditions": "20 clinical isolates"}, "[3]": {"system": "Streptococcus pneumoniae, penicillin susceptible", "assay": "Standard microdilution susceptibility test, clinical isolates", "assay_type": "cell-based", "conditions": "for MIC: single isolate"}, "[4]": {"system": "Streptococcus pneumoniae, penicillin resistant", "assay": "Standard microdilution susceptibility test, clinical isolates", "assay_type": "cell-based"}, "[5]": {"system": "Streptococcus viridans sp.", "assay": "Standard microdilution susceptibility test, clinical isolates", "assay_type": "cell-based", "conditions": "20 clinical isolates"}, "Diphteroides 8264": {"system": "Diphteroides 8264", "conditions": "cited from earlier work"}, "[6]": {"system": "Staphylococcus saprophyticus 8454", "conditions": "cited from earlier work"}, "[7]": {"system": "Serotype β Streptococcus 8252", "conditions": "cited from earlier work"}, "[8]": {"system": "Staphylococcus hominis 7835", "conditions": "cited from earlier work"}, "[9]": {"system": "Streptococcus simulans 7866", "conditions": "cited from earlier work"}, "Staphylococcus capitis": {"system": "Staphylococcus capitis", "conditions": "cited from earlier work"}, "Escherichia coli B 1218": {"system": "Escherichia coli B 1218", "conditions": "cited from earlier work"}, "Propionibacterium acnes [10]": {"system": "Propionibacterium acnes", "conditions": "cited from earlier work"}, "[11]": {"system": "Staphylococcus epidermidis", "conditions": "by Bryskier; cited from earlier work"}, "Streptococcus mitis": {"system": "Streptococcus mitis", "conditions": "by Bryskier; cited from earlier work"}, "Micrococcus": {"system": "Micrococcus", "conditions": "by Bryskier; cited from earlier work"}, "Coryneform(s)": {"system": "Coryneform(s)", "conditions": "by Bryskier; cited from earlier work"}, "Escherichia coli": {"system": "Escherichia coli", "conditions": "by Bryskier; cited from earlier work"}, "Propionibacterium acnes [12]": {"system": "Propionibacterium acnes", "conditions": "by Bryskier; cited from earlier work"}, "S. aureus ATCC 25923": {"system": "S. aureus ATCC 25923", "conditions": "Uri and Actor 1979; cited from earlier work"}, "[13]": {"system": "laboratory strain Listeria monocytogenes", "conditions": "Uri 1986; cited from earlier work"}, "[14]": {"system": "erythromycin-sensitive Staphylococcus spp. strains", "conditions": "collection of 279 strains; cited from earlier work"}, "Gram-negative species": {"system": "Gram-negative species", "conditions": "Horváth 1979; the patent calls the statement unfounded; cited from earlier work"}, "[15]": {"system": "enterococci and S. pyogenes", "conditions": "Bryskier 2005; cited from earlier work"}, "[16]": {"system": "Corynebacterium spp., Enterobacteriaceae species, Pseudomonas aeruginosa, yeasts and dermatophytes", "conditions": "Bryskier 2005; cited from earlier work"}},
  "note": "Read-outs that look alike come from different tables or passages of the source.",
  "data": [
    {"substance": "Primycin", "values": [
      {"measurement": "MIC 50%", "setting": "[1]", "result": 0.03, "unit": "µg/mL"},
      {"measurement": "MIC 90%", "setting": "[1]", "result": 0.06, "unit": "µg/mL"},
      {"measurement": "MIC Range", "setting": "[1]", "result": "0.03 to 0.06", "unit": "µg/mL"},
      {"measurement": "Ratio of Sensitive/Total", "setting": "[1]", "result": "10/10"},
      {"measurement": "MIC 50%", "setting": "[2]", "result": 0.5, "unit": "µg/mL"},
      {"measurement": "MIC 90%", "setting": "[2]", "result": 0.5, "unit": "µg/mL"},
      {"measurement": "MIC Range", "setting": "[2]", "result": "0.5 to 1", "unit": "µg/mL"},
      {"measurement": "Ratio of Sensitive/Total", "setting": "[2]", "result": "20/20"},
      {"measurement": "MIC 50%", "setting": "[3]; 10 clinical isolates", "result": 0.5, "unit": "µg/mL"},
      {"measurement": "MIC 90%", "setting": "[3]; 10 clinical isolates", "result": 0.5, "unit": "µg/mL"},
      {"measurement": "MIC Range", "setting": "[3]; 10 clinical isolates", "result": "0.25 to 1", "unit": "µg/mL"},
      {"measurement": "Ratio of Sensitive/Total", "setting": "[3]; 10 clinical isolates", "result": "10/10"},
      {"measurement": "MIC", "setting": "[3]; serotype 3", "result": 0.5, "unit": "µg/mL"},
      {"measurement": "MIC", "setting": "[3]; serotype 4", "result": 0.5, "unit": "µg/mL"},
      {"measurement": "MIC", "setting": "[3]; serotype 7F", "result": 0.5, "unit": "µg/mL"},
      {"measurement": "MIC", "setting": "[3]; serotype 8", "result": 0.5, "unit": "µg/mL"},
      {"measurement": "MIC", "setting": "[3]; serotype 9(V)", "result": 0.5, "unit": "µg/mL"},
      {"measurement": "MIC", "setting": "[3]; serotype 11(A)", "result": 0.5, "unit": "µg/mL"},
      {"measurement": "MIC", "setting": "[3]; serotype 19F", "result": 0.5, "unit": "µg/mL"},
      {"measurement": "MIC", "setting": "[3]; serotype 23(F)", "result": 0.25, "unit": "µg/mL"},
      {"measurement": "MIC 50%", "setting": "[4]; 10 clinical isolates", "result": 0.5, "unit": "µg/mL"},
      {"measurement": "MIC 90%", "setting": "[4]; 10 clinical isolates", "result": 1, "unit": "µg/mL"},
      {"measurement": "MIC Range", "setting": "[4]; 10 clinical isolates", "result": "0.5 to 1", "unit": "µg/mL"},
      {"measurement": "Ratio of Sensitive/Total", "setting": "[4]; 10 clinical isolates", "result": "10/10"},
      {"measurement": "MIC", "setting": "[4]; single isolate, serotype 23(F)", "result": 0.5, "unit": "µg/mL"},
      {"measurement": "MIC 50%", "setting": "[5]", "result": 1, "unit": "µg/mL"},
      {"measurement": "MIC 90%", "setting": "[5]", "result": 1, "unit": "µg/mL"},
      {"measurement": "MIC Range", "setting": "[5]", "result": "0.5 to 1", "unit": "µg/mL"},
      {"measurement": "Ratio of Sensitive/Total", "setting": "[5]", "result": "20/20"},
      {"measurement": "MIC", "setting": "Diphteroides 8264", "result": 50.0, "unit": "µg/mL"},
      {"measurement": "MIC", "setting": "[6]", "result": 0.39, "unit": "µg/mL"},
      {"measurement": "MIC", "setting": "[7]", "result": 1.56, "unit": "µg/mL"},
      {"measurement": "MIC", "setting": "[8]", "result": 0.39, "unit": "µg/mL"},
      {"measurement": "MIC", "setting": "[9]", "result": 0.39, "unit": "µg/mL"},
      {"measurement": "MIC", "setting": "Staphylococcus capitis", "result": 0.78, "unit": "µg/mL"},
      {"measurement": "MIC", "setting": "Escherichia coli B 1218", "result": 50.0, "unit": "µg/mL"},
      {"measurement": "MIC", "setting": "Propionibacterium acnes [10]", "result": "<0.1", "unit": "µg/mL"},
      {"measurement": "MIC", "setting": "[11]", "result": 0.78, "unit": "µg/mL"},
      {"measurement": "MIC", "setting": "Streptococcus mitis", "result": 50, "unit": "µg/mL"},
      {"measurement": "MIC", "setting": "Micrococcus", "result": 0.78, "unit": "µg/mL"},
      {"measurement": "MIC", "setting": "Coryneform(s)", "result": 50, "unit": "µg/mL"},
      {"measurement": "MIC", "setting": "Escherichia coli", "result": 50, "unit": "µg/mL"},
      {"measurement": "MIC", "setting": "Propionibacterium acnes [12]", "result": "<0.1", "unit": "µg/mL"},
      {"measurement": "MIC (not inhibited at the highest concentration tested)", "setting": "S. aureus ATCC 25923", "result": "> 2", "unit": "µg/mL"},
      {"measurement": "MIC", "setting": "[13]", "result": 0.25, "unit": "µg/mL"},
      {"measurement": "share of strains primycin-resistant (MIC≧5 mg/L)", "setting": "[14]", "result": 1, "unit": "%"},
      {"measurement": "MIC versus Gram-positives", "setting": "Gram-negative species", "result": "hundred times higher"},
      {"measurement": "efficacy", "setting": "[15]", "result": "moderate efficacy"},
      {"measurement": "efficacy", "setting": "[16]", "result": "ineffective"}
    ]}
  ]
}
